pIC50: −log10 of the molar value. A value given as a limit tells only on which side of the number the result lay.

A word on the pIC50: it is the IC50 on a negative log10 scale, so that one unit is a factor of ten.

For the test, the target named is T1, Bromodomain-containing protein 9 [133-239] (Homo sapiens, UniProt Q9H8M2).
T1 construct: 133-239
T1 sequence (Q9H8M2 whole entry): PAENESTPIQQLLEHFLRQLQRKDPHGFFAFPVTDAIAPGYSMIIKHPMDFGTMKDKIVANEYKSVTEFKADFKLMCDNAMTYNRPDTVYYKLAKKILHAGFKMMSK
Nature of the test: BRD9 Bromodomain TR-FRET Competition Binding Assay. How it is done:
A mixture of biotinylated-ligand and SureLight Allophycocyanin-Streptavidin (APC-SA, PerkinElmer AD0201) in 50 mM HEPES (pH 7.4), 50 mM NaCl, 1 mM TCEP (pH 7), 0.01% (v/v) Tween-20, 0.01% (w/v) bovine serum albumin was added to a white 384-well PerkinElmer Proxiplate Plus plate. DMSO or 3-fold serially diluted compounds were then added to the Proxiplate followed by addition of Flag-BRD9. After a 10 minute incubation at room temperature, Eu-W1024 anti-FLAG (PerkinElmer, AD0273) was added.
A general note: Time-resolved FRET reads energy transfer from a long-lived donor to a nearby acceptor.

Take `COc1cc(-c2cn(C)c(=O)c3cnccc23)cc(OC)c1CN(C)C(=O)CCCCCOc1cccc2c1C(=O)N(C1CCC(=O)NC1=O)C2=O` (configuration not stated) [US11773085, Compound D4]: the pIC50 is greater than 8.00.
`CCS(=O)(=O)N(C)Cc1c(OC)cc(-c2cn(C)c(=O)c3cnccc23)cc1OC` [US11773085, Compound B35] had a pIC50 greater than 8.00.

These data come from BindingDB's records for patent US11773085 (Foghorn Therapeutics, 2023).
